Reference: patent US7935815B2, “Imidazoyl pyridine compounds and salts thereof” (Eisai R&D Management Co., Ltd., priority 2007, dated 2011)

tested on: Aβ42 production; test: Quantification of Aβ peptide in culture of neurons from rat fetus brain (Aβ ELISA); format: cell-based; details: Rattus norvegicus, Neuron, 72 h, rat primary neuronal culture (embryonic day 18 Wistar rat cerebral cortex); cultured three days after addition of compound; Aβx-42 ELISA of the medium; read-out: Aβ42 production reducing effect IC50
Method in brief: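 Primary cortical neurons from E18 Wistar rat embryos were cultured 4 days on poly-lysine, then treated with compound in Neurobasal/B27 without 2-mercaptoethanol (final DMSO ≤1%) for 3 days. Conditioned medium was assayed undiluted by ELISA for Aβx-42, against DMSO-only controls.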

Row | SMILES | IC50
1 | COc1cc(/C=C/c2nc3n(n2)CC[C@H](O)[C@@H]3c2cc(F)c(F)c(F)c2)ccc1-n1cnc(C)c1 [Example 106, (7S,8R)-2-{(E)-2-[3-methoxy-4-(4-methyl-1H-imidazol-1-yl)phenyl]vinyl}-8-(3,4,5-trifluorophenyl)-5,6,7,8-tetrahydro-[1,2,4]triazolo[1,5-a]pyridin-7-ol] | 39 nM
2 | COc1cc(/C=C/c2nc3n(n2)C[C@@H](O)C[C@@H]3c2cc(F)c(F)c(F)c2)ccc1-n1cnc(C)c1 [Example 108, (6S,8R)-2-{(E)-2-[3-methoxy-4-(4-methyl-1H-imidazol-1-yl)phenyl]vinyl}-8-(3,4,5-trifluorophenyl)-5,6,7,8-tetrahydro-[1,2,4]triazolo[1,5-a]pyridin-6-ol] | 29 nM
3 | COc1cc(/C=C/c2nc3n(n2)C[C@H](O)C[C@@H]3c2cc(F)c(F)c(F)c2)ccc1-n1cnc(C)c1 [Example 110, (6R,8R)-2-{(E)-2-[3-methoxy-4-(4-methyl-1H-imidazol-1-yl)phenyl]vinyl}-8-(3,4,5-trifluorophenyl)-5,6,7,8-tetrahydro-[1,2,4]triazolo[1,5-a]pyridin-6-ol] | 33 nM
4 | COc1cc(/C=C/c2nc3n(n2)CCCCN3c2ccc(F)cc2)ccc1-n1cnc(C)c1 [Example 165, 8-(4-fluorophenyl)-2-{(E)-2-[3-methoxy-4-(4-methyl-1H-imidazol-1-yl)phenyl]vinyl}-5,6,7,8-tetrahydro-4H-1,3,3a,8-tetraazaazulene] | 115 nM
5 | COc1nc(/C=C/c2nc3n(n2)CCCN3c2ccc(Cl)cc2)ccc1-n1cnc(C)c1 [Example 232, 4-(4-chlorophenyl)-2-{(E)-2-[6-methoxy-5-(4-methyl-1H-imidazol-1-yl)pyridin-2-yl]vinyl}-4,5,6,7-tetrahydro-[1,2,4]triazolo[1,5-a]pyrimidine] | 33 nM
6 | COc1nc(/C=C/c2nc3n(n2)CCCN3c2ccccc2)ccc1-n1cnc(C)c1 [Example 233, 2-{(E)-2-[6-methoxy-5-(4-methyl-1H-imidazol-1-yl)pyridin-2-yl]vinyl}-4-phenyl-4,5,6,7-tetrahydro-[1,2,4]triazolo[1,5-a]pyrimidine] | 42 nM
7 | COc1nc(/C=C/c2nc3n(n2)CC[C@H](C)N3c2ccc(F)cc2)ccc1-n1cnc(C)c1 [Example 236, (S)-4-(4-fluorophenyl)-2-{(E)-2-[6-methoxy-5-(4-methyl-1H-imidazol-1-yl)pyridin-2-yl]vinyl}-5-methyl-4,5,6,7-tetrahydro-[1,2,4]triazolo[1,5-a]pyrimidine] | 39 nM
8 | COc1nc(/C=C/c2nc3n(n2)C(C)CCC3c2ccccc2C(F)(F)F)ccc1-n1cnc(C)c1 (stereo not shown) [Example 361, 2-{(E)-2-[6-methoxy-5-(4-methyl-1H-imidazol-1-yl)pyridin-2-yl]vinyl}-5-methyl-8-(2-trifluoromethylphenyl)-5,6,7,8-tetrahydro-[1,2,4]triazolo[1,5-a]pyridine] | 12 nM
9 | COc1nc(/C=C/c2nc3n(n2)CCOC3c2ccccc2C(F)(F)F)ccc1-n1cnc(C)c1 (stereo not shown) [Example 368, 2-{(E)-2-[6-methoxy-5-(4-methyl-1H-imidazol-1-yl)pyridin-2-yl]vinyl}-8-(2-trifluoromethylphenyl)-5,6-dihydro-8H-[1,2,4]triazolo[5,1-c][1,4]oxazine] | 25 nM
10 | COc1nc(/C=C/c2nc3n(n2)CCC(C)N3c2ccc(F)cc2F)ccc1-n1cnc(C)c1 (stereo not shown) [Example 371, 4-(2,4-difluorophenyl)-2-{(E)-2-[6-methoxy-5-(4-methyl-1H-imidazol-1-yl)pyridin-2-yl]vinyl}-5-methyl-4,5,6,7-tetrahydro-[1,2,4]triazolo[1,5-a]pyrimidine] | 27 nM
11 | COc1nc(/C=C/c2nc3n(n2)CCC(C)N3c2ccccc2C(F)(F)F)ccc1-n1cnc(C)c1 (stereo not shown) [Example 373, 2-{(E)-2-[6-methoxy-5-(4-methyl-1H-imidazol-1-yl)pyridin-2-yl]vinyl}-5-methyl-4-(2-trifluoromethylphenyl)-4,5,6,7-tetrahydro-[1,2,4]triazolo[1,5-a]pyrimidine] | 29 nM
12 | COc1nc(/C=C/c2nc3n(n2)CCC3c2ccccc2)ccc1-n1cnc(C)c1 (stereo not shown) [Example 376, 2-{(E)-2-[6-methoxy-5-(4-methyl-1H-imidazol-1-yl)pyridin-2-yl]vinyl}-7-phenyl-6,7-dihydro-5H-pyrrolo[1,2-b][1,2,4]triazole] | 28 nM
13 | COc1nc(/C=C/c2nc3n(n2)CCC3c2ccc(F)c(F)c2)ccc1-n1cnc(C)c1 (stereo not shown) [Example 380, 7-(3,4-difluorophenyl)-2-{(E)-2-[6-methoxy-5-(4-methyl-1H-imidazol-1-yl)pyridin-2-yl]vinyl}-6,7-dihydro-5H-pyrrolo[1,2-b][1,2,4]triazole] | 29 nM
14 | COc1nc(/C=C/c2nc3n(n2)CCC3c2cc(F)cc(F)c2)ccc1-n1cnc(C)c1 (stereo not shown) [Example 384, 7-(3,5-difluorophenyl)-2-{(E)-2-[6-methoxy-5-(4-methyl-1H-imidazol-1-yl)pyridin-2-yl]vinyl}-6,7-dihydro-5H-pyrrolo[1,2-b][1,2,4]triazole] | 36 nM
15 | COc1nc(/C=C/c2nc3n(n2)CCC3c2ccccc2C(F)(F)F)ccc1-n1cnc(C)c1 (stereo not shown) [Example 390, 2-{(E)-2-[6-methoxy-5-(4-methyl-1H-imidazol-1-yl)pyridin-2-yl]vinyl}-7-(2-trifluoromethylphenyl)-6,7-dihydro-5H-pyrrolo[1,2-b][1,2,4]triazole] | 26 nM
16 | COc1nc(/C=C/c2nc3n(n2)CCC3c2cc(F)ccc2C(F)(F)F)ccc1-n1cnc(C)c1 (stereo not shown) [Example 392, 7-(5-fluoro-2-trifluoromethylphenyl)-2-{(E)-2-[6-methoxy-5-(4-methyl-1H-imidazol-1-yl)pyridin-2-yl]vinyl}-6,7-dihydro-5H-pyrrolo[1,2-b][1,2,4]triazole] | 22 nM

same assay, conditions: rat primary neuronal culture (embryonic day 18 Wistar rat cerebral cortex); cultured three days after addition of compound; Aβx-42 ELISA of the medium; read-out: Aβ42 production reducing effect IC50

Row | SMILES | IC50
17 | COc1nc(/C=C/c2nc3n(n2)CCC[C@H]3c2ccc(F)c(F)c2F)ccc1-n1cnc(C)c1 [Example 339, (S)-2-{(E)-3-[6-methoxy-5-(4-methyl-1H-imidazol-1-yl)pyridin-2-yl]vinyl}-8-(2,3,4-trifluorophenyl)-5,6,7,8-tetrahydro-[1,2,4]triazole[1,5-a]pyridine] | 21 nM
18 | COc1nc(/C=C/c2nc3n(n2)C(C)CCC3c2ccccc2C(F)(F)F)ccc1-n1cnc(C)c1 (stereo not shown) [Example 362, 2-{(E)-2-[6-methoxy-5-(4-methyl-1H-imidazol-1-yl)pyridin-2-yl]vinyl}-5-methyl-8-(2-trifluoromethylphenyl)-5,6,7,8-tetrahydro-[1,2,4]triazolo[1,5-a]pyridine] | 9 nM
19 | COc1nc(/C=C/c2nc3n(n2)CCCC3c2cc(F)cc(F)c2)ccc1-n1cnc(C)c1 (stereo not shown) [Example 365, 8-(3,5-difluorophenyl)-2-{(E)-2-[6-methoxy-5-(4-methyl-1H-imidazol-1-yl)pyridin-2-yl]vinyl}-5,6,7,8-tetrahydro-[1,2,4]triazolo[1,5-a]pyridine] | 21 nM
